Reference: patent US6468567B1, “Malt beverage having stabilized flavor and methods of production thereof” (Cerveceria Polar, C.A., priority 1997, dated 2002)

Test: Addition of 1,2-phenylenediamine to wort (chromatogram)
Conditions: wort + 1,2-phenylenediamine versus wort; FIG. 5
Experimental: FIG. 5. […] A: wort. B: wort+1,2-phenylenediamine.
A fixed volume (2.2 ml) of 5% 1,2-phenylenediamine (OPD) in methanol was added to a bottle of beer (222 ml) that was then recapped and kept at 20° C. for 12 hours. After 12 hours of reaction, 25 ml of sample were extracted with chloroform (3×8 ml). The chloroform organic phase was removed by centrifugation at 3000 rpm for 10 min, collected, washed with 0.1 M HCl (3×8 ml) in order to remove the unreacted 1,2-phenylenediamine, and semi-dried with magnesium sulfate. The semi-dried organic phase, which contained the hydrophobic quinoxaline derivatives, was then rotavapped to dryness, and the residue resuspended in 250 μl of acetonitrile, and diluted 1/10 (50% solvent A and 50% solvent B) before chromatographic analysis. Hydrophobic quinoxalines were analyzed using Method I (see below). The aqueous phase, containing hydrophilic quinoxalines, was injected directly and analyzed using Method II (see below).
Chromatographic conditions were as follows: a Nova-Pak C18 (Waters) column 3.9×150 mm, 4 μm was used. The mobile phase was: solvent A—95% water (Milli-Q) and 5% acetonitrile; solvent B—90% acetonitrile and 10% water; flow rate 0.7 ml/min. Elution was monitored with a Waters 991 Photodiode Array Detector (200 nm-360 nm).

In the case of `Nc1ccccc1N` [1,2-phenylenediamine], the “change in the LC18 peak” value was “specific reduction”.
